What all share (assay type): biochemical
The target in one assay is CLK2 (Homo sapiens (Human), UniProt P49760). Nature of the assay: Inhibition of CLK2 kinase activity evaluated at Nanosyn (ADP-Glo). Conditions: ADP-Glo luminescence. Summed up: (§1)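 ADP-Glo luminescence read-out of ADP produced by each kinase acting on substrate, with ATP added to start the reaction. Buffer: 100 mM HEPES pH 7.5, 5 mM MgCl2, Triton X-100, BSA, DTT, phosphatase inhibitors; DMSO 1%. Inhibition calculated against no-inhibitor and no-enzyme controls.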

In another assay the target is EGFR Δ746-750 mutant (Homo sapiens (Human), UniProt P00533, DEL746-750). Nature of the assay: HotSpot radiometric kinase assay, EGFR Δ746-750 mutant. Conditions: 10 μM ATP. Summed up:
(§2)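 10 μM ATP (33P-labelled, final); 120 min RT; P81 filter capture, 0.75% phosphoric acid washes. Cpd preincubated ~20 min with enzyme/substrate, 20 mM Hepes pH 7.5, 10 mM MgCl2, 1% DMSO. IC50 by curve fit.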

The target of another assay is EGFR L858R mutant (Homo sapiens (Human), UniProt P00533, L858R). Nature of the assay: HotSpot radiometric kinase assay, EGFR L858R mutant. Conditions: 10 μM ATP. Summed up:
as §2

Assay [1] has as its target EGFR L858R/T790M/C797S mutant (Homo sapiens (Human), UniProt P00533, C797S/L858R/T790M). As to the kind of experiment: HotSpot radiometric kinase assay, EGFR L858R/T790M/C797S mutant. Conditions: 10 μM ATP. Summed up: as §2
In another assay the target is EGFR (D770_N771insNPG) (Homo sapiens (Human), UniProt P00533, INS770NPG). Nature of the assay: HotSpot radiometric kinase assay, EGFR (D770_N771insNPG). Conditions: 10 μM ATP, read-out: EGFR (Δ770_N771insNPG) IC50. Summed up:
as §2

In the next assay the target is EGFR WT (Homo sapiens (Human), UniProt P00533). As to the kind of experiment: HotSpot radiometric kinase assay (Reaction Biology), EGFR WT. Conditions: 10 μM ATP. Summed up:
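Compounds were preincubated ~20 min with kinase/substrate in pH 7.5 Hepes buffer (MgCl2, EGTA, Brij35, BSA, Na3VO4, DTT, 1% DMSO), then ATP plus 33P-ATP was added to 10 μM final. After 120 min at room temperature, reactions were spotted on P81 filters and washed; IC50 values came from curve fits.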

In another assay the target is EGFR L858R/T790M mutant (Homo sapiens (Human), UniProt P00533, L858R/T790M). Nature of the assay: HotSpot radiometric kinase assay, EGFR L858R/T790M mutant. Conditions: 10 μM ATP. Summed up: as §2
EGFR L858R/T790M mutant, sequence (P00533 25-1210 T790M/L858R): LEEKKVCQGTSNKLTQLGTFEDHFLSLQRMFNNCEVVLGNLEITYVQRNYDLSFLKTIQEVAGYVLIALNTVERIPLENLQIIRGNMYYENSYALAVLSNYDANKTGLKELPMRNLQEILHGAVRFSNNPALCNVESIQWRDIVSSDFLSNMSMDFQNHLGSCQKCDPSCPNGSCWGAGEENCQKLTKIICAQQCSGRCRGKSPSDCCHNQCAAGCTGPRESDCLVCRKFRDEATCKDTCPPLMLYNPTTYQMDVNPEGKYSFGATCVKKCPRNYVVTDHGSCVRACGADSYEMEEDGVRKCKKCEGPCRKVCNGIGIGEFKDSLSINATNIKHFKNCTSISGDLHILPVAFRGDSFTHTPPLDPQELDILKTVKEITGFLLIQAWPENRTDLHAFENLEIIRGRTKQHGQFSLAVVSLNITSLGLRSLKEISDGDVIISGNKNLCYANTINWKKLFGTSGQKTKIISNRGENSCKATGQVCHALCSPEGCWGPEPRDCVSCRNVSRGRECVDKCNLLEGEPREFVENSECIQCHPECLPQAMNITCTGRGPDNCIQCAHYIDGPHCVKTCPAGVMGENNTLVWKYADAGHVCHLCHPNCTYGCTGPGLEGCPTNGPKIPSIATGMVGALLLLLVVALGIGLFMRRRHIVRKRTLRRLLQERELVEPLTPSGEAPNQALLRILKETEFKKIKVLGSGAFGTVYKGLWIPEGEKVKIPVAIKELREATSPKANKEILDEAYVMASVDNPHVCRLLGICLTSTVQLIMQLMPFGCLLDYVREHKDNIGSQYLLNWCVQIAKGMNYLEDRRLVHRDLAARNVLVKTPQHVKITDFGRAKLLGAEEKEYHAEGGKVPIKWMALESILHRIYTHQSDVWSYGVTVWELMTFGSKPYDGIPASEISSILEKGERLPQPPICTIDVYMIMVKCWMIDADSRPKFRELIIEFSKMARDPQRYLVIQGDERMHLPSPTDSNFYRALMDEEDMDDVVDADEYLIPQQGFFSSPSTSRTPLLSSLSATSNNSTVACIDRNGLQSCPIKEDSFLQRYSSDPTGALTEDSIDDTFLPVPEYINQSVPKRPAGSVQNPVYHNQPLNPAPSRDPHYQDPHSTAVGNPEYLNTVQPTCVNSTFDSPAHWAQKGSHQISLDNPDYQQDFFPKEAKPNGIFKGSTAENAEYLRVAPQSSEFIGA
For the next assay, the target named is CLK3 (Homo sapiens (Human), UniProt P49761). Nature of the assay: Inhibition of CLK3 kinase activity evaluated at Nanosyn (ADP-Glo). Conditions: ADP-Glo luminescence. Summed up: as §1
CLK3, sequence (P49761 whole entry): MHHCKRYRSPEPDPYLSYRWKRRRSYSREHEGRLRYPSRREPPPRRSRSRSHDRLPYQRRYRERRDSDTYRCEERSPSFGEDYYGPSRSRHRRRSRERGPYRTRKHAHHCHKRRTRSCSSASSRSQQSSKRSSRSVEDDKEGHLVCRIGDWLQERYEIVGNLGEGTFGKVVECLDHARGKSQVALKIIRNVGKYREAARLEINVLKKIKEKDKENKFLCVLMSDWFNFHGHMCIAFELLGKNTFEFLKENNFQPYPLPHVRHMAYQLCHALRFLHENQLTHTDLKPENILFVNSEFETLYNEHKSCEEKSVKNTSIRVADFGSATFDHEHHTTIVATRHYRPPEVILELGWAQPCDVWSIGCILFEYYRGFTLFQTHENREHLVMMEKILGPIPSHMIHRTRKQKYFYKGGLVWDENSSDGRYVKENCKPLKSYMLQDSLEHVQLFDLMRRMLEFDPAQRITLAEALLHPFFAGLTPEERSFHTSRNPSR
In general terms: ADP-Glo first removes unused ATP, then detects ADP through luciferase.

For assay [2], the target named is EGFR Δ746-750/C797S mutant (Homo sapiens (Human), UniProt P00533, C797S/DEL746-750). As to the kind of experiment: HotSpot radiometric kinase assay, EGFR Δ746-750/C797S mutant. Conditions: 10 μM ATP. Summed up: as §2
EGFR Δ746-750/C797S mutant, sequence (P00533 other isoform, or with tags, fused parts or gaps C797S/del 1-668/del 746-750 limits assumed): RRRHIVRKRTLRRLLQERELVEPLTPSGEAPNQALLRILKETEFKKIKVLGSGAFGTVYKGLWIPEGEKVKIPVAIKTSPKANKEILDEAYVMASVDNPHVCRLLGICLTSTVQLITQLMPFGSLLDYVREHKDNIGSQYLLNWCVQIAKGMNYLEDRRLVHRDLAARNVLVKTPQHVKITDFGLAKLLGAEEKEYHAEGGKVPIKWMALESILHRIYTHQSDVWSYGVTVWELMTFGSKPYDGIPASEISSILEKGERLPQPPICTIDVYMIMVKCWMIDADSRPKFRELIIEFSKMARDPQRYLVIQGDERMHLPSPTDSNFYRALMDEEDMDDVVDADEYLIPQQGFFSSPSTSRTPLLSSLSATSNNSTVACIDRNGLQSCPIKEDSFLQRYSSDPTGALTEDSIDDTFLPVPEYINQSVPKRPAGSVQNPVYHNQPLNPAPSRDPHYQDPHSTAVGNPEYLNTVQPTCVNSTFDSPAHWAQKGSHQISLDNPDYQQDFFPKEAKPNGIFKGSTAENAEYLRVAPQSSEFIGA
In the next assay the target is CLK1 (Homo sapiens (Human), UniProt P49759). Nature of the assay: Inhibition of CLK1 kinase activity evaluated at Nanosyn (ADP-Glo). Conditions: ADP-Glo luminescence. Summed up: as §1
CLK1, sequence (P49759 whole entry): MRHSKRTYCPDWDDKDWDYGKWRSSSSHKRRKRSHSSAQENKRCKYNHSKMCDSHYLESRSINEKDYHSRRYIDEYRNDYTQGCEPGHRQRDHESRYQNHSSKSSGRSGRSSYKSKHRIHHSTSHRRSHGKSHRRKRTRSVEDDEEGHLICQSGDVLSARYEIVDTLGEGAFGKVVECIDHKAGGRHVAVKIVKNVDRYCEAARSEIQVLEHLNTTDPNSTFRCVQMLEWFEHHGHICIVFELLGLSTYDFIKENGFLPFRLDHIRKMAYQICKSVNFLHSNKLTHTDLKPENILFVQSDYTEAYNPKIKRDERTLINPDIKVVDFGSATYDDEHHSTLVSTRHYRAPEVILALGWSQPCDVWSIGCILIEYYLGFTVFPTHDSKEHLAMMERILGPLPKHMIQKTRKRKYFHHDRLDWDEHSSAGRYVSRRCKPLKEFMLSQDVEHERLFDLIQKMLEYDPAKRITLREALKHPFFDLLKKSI
In the next assay the target is CLK4 (Homo sapiens (Human), UniProt Q9HAZ1). As to the kind of experiment: Inhibition of CLK4 kinase activity evaluated at Nanosyn (ADP-Glo). Conditions: ADP-Glo luminescence. Summed up:
as §1

Molecules are shown by their SMILES.

EGFR (D770_N771insNPG), sequence (P00533 other isoform, or with tags, fused parts or gaps del 1-668/ins NPG behind 770 limits assumed): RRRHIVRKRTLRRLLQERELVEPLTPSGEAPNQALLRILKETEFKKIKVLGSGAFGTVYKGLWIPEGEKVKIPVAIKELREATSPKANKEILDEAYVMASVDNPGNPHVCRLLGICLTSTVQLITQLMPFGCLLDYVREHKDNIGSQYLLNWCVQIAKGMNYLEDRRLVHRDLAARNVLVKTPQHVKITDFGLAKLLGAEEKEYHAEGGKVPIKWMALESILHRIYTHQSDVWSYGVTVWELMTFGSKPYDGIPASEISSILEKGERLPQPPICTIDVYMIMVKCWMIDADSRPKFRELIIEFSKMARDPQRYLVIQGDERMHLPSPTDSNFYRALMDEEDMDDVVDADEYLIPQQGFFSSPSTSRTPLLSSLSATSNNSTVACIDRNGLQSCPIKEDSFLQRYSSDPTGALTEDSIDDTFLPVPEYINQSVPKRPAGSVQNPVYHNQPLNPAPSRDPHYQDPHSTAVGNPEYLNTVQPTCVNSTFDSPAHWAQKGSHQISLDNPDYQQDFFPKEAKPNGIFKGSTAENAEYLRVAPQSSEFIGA
EGFR L858R mutant, sequence (P00533 25-1210 L858R): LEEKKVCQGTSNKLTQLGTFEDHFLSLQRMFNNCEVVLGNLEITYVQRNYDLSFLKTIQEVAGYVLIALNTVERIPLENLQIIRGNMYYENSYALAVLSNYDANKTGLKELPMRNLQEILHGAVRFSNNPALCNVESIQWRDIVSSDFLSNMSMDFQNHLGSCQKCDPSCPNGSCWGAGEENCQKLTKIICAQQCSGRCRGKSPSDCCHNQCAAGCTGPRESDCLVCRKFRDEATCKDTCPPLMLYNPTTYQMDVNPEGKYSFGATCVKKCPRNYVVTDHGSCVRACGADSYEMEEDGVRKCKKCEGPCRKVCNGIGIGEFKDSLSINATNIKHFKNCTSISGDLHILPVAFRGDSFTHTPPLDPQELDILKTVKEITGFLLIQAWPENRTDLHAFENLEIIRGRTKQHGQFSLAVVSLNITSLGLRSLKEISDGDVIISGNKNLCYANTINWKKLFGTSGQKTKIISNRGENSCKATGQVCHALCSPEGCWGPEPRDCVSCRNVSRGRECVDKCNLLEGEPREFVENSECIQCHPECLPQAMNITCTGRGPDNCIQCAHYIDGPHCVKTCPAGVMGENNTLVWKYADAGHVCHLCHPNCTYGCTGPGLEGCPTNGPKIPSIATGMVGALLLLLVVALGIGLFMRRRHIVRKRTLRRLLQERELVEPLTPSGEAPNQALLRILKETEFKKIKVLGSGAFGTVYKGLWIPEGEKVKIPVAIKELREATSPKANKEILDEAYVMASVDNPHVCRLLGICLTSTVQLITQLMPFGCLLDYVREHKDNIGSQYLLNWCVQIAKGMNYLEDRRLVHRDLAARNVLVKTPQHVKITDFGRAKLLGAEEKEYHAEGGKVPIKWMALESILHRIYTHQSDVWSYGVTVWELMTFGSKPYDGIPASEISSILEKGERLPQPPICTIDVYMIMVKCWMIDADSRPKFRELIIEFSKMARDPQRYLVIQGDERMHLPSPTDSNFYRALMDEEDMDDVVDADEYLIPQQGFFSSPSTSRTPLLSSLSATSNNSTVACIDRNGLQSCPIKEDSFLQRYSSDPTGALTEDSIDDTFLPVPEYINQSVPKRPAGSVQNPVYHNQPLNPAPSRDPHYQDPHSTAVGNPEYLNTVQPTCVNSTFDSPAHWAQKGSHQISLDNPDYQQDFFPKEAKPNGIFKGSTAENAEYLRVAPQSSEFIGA
CLK4, sequence (Q9HAZ1 whole entry): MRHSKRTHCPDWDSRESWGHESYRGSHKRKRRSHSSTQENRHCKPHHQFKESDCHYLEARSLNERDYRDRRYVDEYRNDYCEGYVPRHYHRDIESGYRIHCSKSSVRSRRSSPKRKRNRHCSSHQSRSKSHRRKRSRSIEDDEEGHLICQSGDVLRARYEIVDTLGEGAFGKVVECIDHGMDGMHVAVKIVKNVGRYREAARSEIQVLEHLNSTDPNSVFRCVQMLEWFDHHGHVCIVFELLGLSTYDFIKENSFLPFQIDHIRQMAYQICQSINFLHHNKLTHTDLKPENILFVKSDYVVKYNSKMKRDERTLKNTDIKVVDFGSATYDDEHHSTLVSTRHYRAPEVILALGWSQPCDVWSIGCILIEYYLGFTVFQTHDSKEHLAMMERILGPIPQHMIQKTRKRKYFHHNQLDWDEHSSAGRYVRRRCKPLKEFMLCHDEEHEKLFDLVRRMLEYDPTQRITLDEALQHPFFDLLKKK

For orientation: IC50 means the concentration needed to halve the response being measured. With `CC(C)Oc1nn(CCO)c2c1/C=C/c1n[nH]c3ccc(cc13)-c1cnn(C)c1OC(CF)CN(C)C2` (stereo not shown) [Example 225, 2-{(17E)-10-(fluoromethyl)-8,12-dimethyl-16-[(propan-2-yl)oxy]-2,8,10,11,12,13-hexahydro-14H-3,5-ethenotripyrazolo[3,4-f:3′,4′-j:4″,3″-n][1,4]oxazacyclopentadecin-14-yl}ethan-1-ol], the IC50 on CLK2 worked out at 0.49 nM; at EGFR Δ746-750 mutant, 5.39 nM; against EGFR L858R mutant it was 12.2 nM; in [1] it was 0.21 nM; at EGFR (D770_N771insNPG), 65.4 nM; on EGFR WT, 51.8 nM. Besides, the IC50 worked out at 0.57 nM against EGFR L858R/T790M mutant; 77.7 nM at CLK3; 1.44 nM in assay [2]; 1.11 nM at CLK1; 1.92 nM at CLK4.
Consider `CC(C)Oc1nn(CCO)c2c1/C=C/c1n[nH]c3cc(F)c(cc13)-c1cnn(C)c1O[C@@H]1CCCN(C2)C1` [Example 199, 2-[(10R,19E)-22-fluoro-8-methyl-18-[(propan-2-yl)oxy]-2,10,11,12,13,15-hexahydro-3,5-etheno-10,14-methanotripyrazolo[3,4-h:3′,4′-l:4″,3″- p][1,6]oxazacycloheptadecin-16(8H)-yl]ethan-1-ol], for which the half-maximal inhibitory concentration (IC50) at CLK2 was 2.29 nM; against EGFR Δ746-750 mutant, 147 nM; against EGFR L858R mutant, 87.8 nM; in assay [1], 43.9 nM; on EGFR (D770_N771insNPG), > 1000 nM; on EGFR WT, 1280 nM. The IC50 worked out at 64.4 nM at EGFR L858R/T790M mutant; 19.3 nM at CLK3; 42.5 nM in assay [2]; 1.05 nM on CLK1; 1.79 nM at CLK4.
Regarding `CCOc1nn(C)c2c1/C=C/c1n[nH]c3ccc(cc13)-c1cnn(C)c1O[C@@H]1CCCN(C2)C1` [Example 160, (10R,19E)-18-ethoxy-8,16-dimethyl-2,8,10,11,12,13,15,16-octahydro-3,5-etheno-10,14-methanotripyrazolo[3,4-h:3′,4′-l:4″,3″- p][1,6]oxazacycloheptadecine], the half-inhibitory concentration (IC50) at CLK2 came out at 0.3 nM; against EGFR Δ746-750 mutant it was 13.6 nM; on EGFR L858R mutant, 34.4 nM; in assay [1], 1.08 nM; at EGFR (D770_N771insNPG), 246 nM; against EGFR WT it was 63 nM. Besides, the IC50 at EGFR L858R/T790M mutant was 1.42 nM; at CLK3 it was 38.2 nM; in assay [2], 19.5 nM; on CLK1, 0.22 nM; on CLK4, 0.41 nM.
As for `Cc1nn(C[C@H](C)O)c2c1/C=C/c1n[nH]c3ccc(cc13)-c1cnn(C)c1O[C@@H](C)CN(C)C2` [Example 123, (2S)-1-[(10S,17E)-8,10,12,16-tetramethyl-2,8,10,11,12,13-hexahydro-14H-3,5-ethenotripyrazolo[3,4f:3′,4′-j:4″,3″-n][1,4]oxazacyclopentadecin-14-yl]propan-2-ol], the IC50 at CLK2 is 0.1 nM; at EGFR Δ746-750 mutant, 1.3 nM; at EGFR L858R mutant it was 1.5 nM; in assay [1], 0.75 nM; at EGFR (D770_N771insNPG), 10.1 nM; at EGFR WT it was 11.4 nM. Besides, the IC50 turned out to be 0.33 nM on EGFR L858R/T790M mutant; 171 nM at CLK3; 0.8 nM in [2]; 0.17 nM at CLK1; 0.45 nM on CLK4.
Take `CCOc1nn([C@H](C)CO)c2c1/C=C/c1n[nH]c3ccc(cc13)-c1cnn(C)c1O[C@@H](C)CN(C)C2` [Example 171, (2R)-2-[(10S,17E)-16-ethoxy-8,10,12-trimethyl-2,8,10,11,12,13-hexahydro-14H-3,5-ethenotripyrazolo[3,4-f:3′,4′-j:4″,3″-n][1,4]oxazacyclopentadecin-14-yl]propan-1-ol]: the IC50 at CLK2 amounted to 0.62 nM; against EGFR Δ746-750 mutant, 38.3 nM; on EGFR L858R mutant it was 7.5 nM; in assay [1], 1.32 nM; on EGFR (D770_N771insNPG), 86 nM; against EGFR WT it was 67.2 nM. The IC50 on EGFR L858R/T790M mutant was 0.5 nM; at CLK3, 977 nM; in [2], 8.74 nM; at CLK1, 0.85 nM; at CLK4, 0.57 nM.

The values above are taken from patent publication US20250353864A1, “INDAZOLE CONTAINING MACROCYCLES AND THEIR USE” (BLOSSOMHILL THERAPEUTICS, INC., priority 2022, published 2025).
